Key:
[1] = system: P. stuartii; assay: Susceptibility testing, MIC by Etest; type: cell-based, Providencia stuartii; settings: P. stuartii TEM-24, n=1
Experimental: (§1) Susceptibility testing was performed by determining MIC values using the Etest® (AB bioMérieux; Solna, Sweden) on Mueller-Hinton agar plates at 37° C. and results were recorded according to US guidelines (CLSI), as updated in 2012 (2). The breakpoints for cefotaxime are susceptible (S)≤1 and resistant (R)≥4 μg/ml, and for ceftazidime S≤4 and R≥16 μg/ml.

[2] = system: E. aerogenes; assay: ESBL NDP test using cultured strains; type: biochemical, Enterobacter aerogenes; design: key: (+) and (−) referred to color change being, red to yellow or unchanged, respectively; (+) and (−) referred to color change being, red to yellow or unchanged, respectively
Experimental: (§2) Strains were isolated on Mueller-Hinton agar (Biorad, Marnes-la-Coquette, France) and incubated at 37° C. for 16 h to 24 h before performing the NDP rapid ESBL test as follows. One calibrated inoculated loop (10 μl) of the tested strain was resuspended in 150 μl of 20 mM Tris-HCl lysis buffer previously distributed in Microbead tubes (Ultraclean Microbial DNA isolation kit Bead Tubes, MO BIO Laboratories, Carlsbad, USA). Mechanical lysis of bacteria was performed by strong agitation of Microbead tubes using a vortex adapter (MO BIO Laboratories) for 30 min at room temperature. This bacterial suspension was centrifuged at 10,000×g at room temperature for 5 min. Thirty μl of the supernatant was mixed in a well of a 96-well tray with 100 μl of a 1 ml solution made of 3 mg of purified cefotaxime sodium salt (Sigma-Aldrich, Saint-Quentin-Fallavier, France) in a pH 7.8 phenol red solution. […]. The phenol red solution was made by taking 2 ml of a concentrated pH 8 phenol solution (made from a mixture of phenol red 0.5% in distilled water) to which 16.6 ml of distilled water was added. The pH value was then adjusted to a 7.8 value by adding drops of a 1 N NaOH solution. Mixture of the phenol red solution and the enzymatic suspension being tested was incubated at 37° C. for 30 min. Similarly, culture extracts were analyzed in wells containing cefotaxime and tazobactam (4 mg/ml). Other concentrations of tazobactam and other ß-lactamase inhibitors were tested giving less clear results (data not shown). […] This definition of test positivity will be applied throughout the study.

[3] = system: K. pneumoniae; assay: Susceptibility testing, MIC by Etest; type: cell-based, Klebsiella pneumoniae
Experimental: as §1

[4] = system: P. mirabilis; assay: ESBL NDP test using cultured strains; type: biochemical, Proteus mirabilis; design: key: (+) and (−) referred to color change being, red to yellow or unchanged, respectively; (+) and (−) referred to color change being, red to yellow or unchanged, respectively
Experimental: as §2

[5] = system: S. enterica; assay: ESBL NDP test using cultured strains; type: biochemical, Salmonella enterica; design: key: (+) and (−) referred to color change being, red to yellow or unchanged, respectively; (+) and (−) referred to color change being, red to yellow or unchanged, respectively
Experimental: Strains were isolated on Mueller-Hinton agar (Biorad, Marnes-la-Coquette, France) and incubated at 37° C. for 16 h to 24 h before performing the NDP rapid ESBL test as follows. One calibrated inoculated loop (10 μl) of the tested strain was resuspended in 150 μl of 20 mM Tris-HCl lysis buffer previously distributed in Microbead tubes (Ultraclean Microbial DNA isolation kit Bead Tubes, MO BIO Laboratories, Carlsbad, USA). Mechanical lysis of bacteria was performed by strong agitation of Microbead tubes using a vortex adapter (MO BIO Laboratories) for 30 min at room temperature. This bacterial suspension was centrifuged at 10,000×g at room temperature for 5 min. Thirty μl of the supernatant was mixed in a well of a 96-well tray with 100 μl of a 1 ml solution made of 3 mg of purified cefotaxime sodium salt (Sigma-Aldrich, Saint-Quentin-Fallavier, France) in a pH 7.8 phenol red solution. […]. The phenol red solution was made by taking 2 ml of a concentrated pH 8 phenol solution (made from a mixture of phenol red 0.5% in distilled water) to which 16.6 ml of distilled water was added. The pH value was then adjusted to a 7.8 value by adding drops of a 1 N NaOH solution. Mixture of the phenol red solution and the enzymatic suspension being tested was incubated at 37° C. for 30 min. Similarly, culture extracts were analyzed in wells containing cefotaxime and tazobactam (4 mg/ml). […]

[6] = system: E. cloacae; assay: ESBL NDP test using cultured strains; type: biochemical, Enterobacter cloacae; design: key: (+) and (−) referred to color change being, red to yellow or unchanged, respectively; (+) and (−) referred to color change being, red to yellow or unchanged, respectively
Experimental: as §2

[7] = system: CTX-M producers; assay: Susceptibility testing, MIC by Etest; type: cell-based, Enterobacteriaceae; settings: all CTX-M producers (n=147)
Experimental: as §1

[8] = system: K. oxytoca; assay: Susceptibility testing, MIC by Etest; type: cell-based, Klebsiella oxytoca; settings: K. oxytoca Wild-type penicillinase, n=1
Experimental: as §1

[9] = system: P. mirabilis; assay: Susceptibility testing, MIC by Etest; type: cell-based, Proteus mirabilis
Experimental: as §1

## CO/N=C(\C(=O)N[C@@H]1C(=O)N2C(C(=O)O)=C(COC(C)=O)CS[C@H]12)c1csc(N)n1 [CTX, cefotaxime]
[1]
  MICs range: 0.5 µg/mL
[2]; E. aerogenes BN 1113 0225, Wild-type
  ESBL NDP Test from: Colonies: −
[2]; E. aerogenes E2O15, TEM-121
  ESBL NDP Test from: Colonies: −
[2]; E. aerogenes TEM-24, n=6
  Test (color change): −
[2]; E. aerogenes TEM-121, n=1
  Test (color change): −
[2]; E. aerogenes Wild-type, chromosome-encoded cephalosporinase, n=1
  Test (color change): −
[3]; K. pneumoniae CTX-M-3, n=1
  MICs range: >16 µg/mL
[3]; K. pneumoniae CTX-M-14, n=3
  MICs range: >16 µg/mL
[3]; K. pneumoniae CTX-M-15, n=28
  MICs range: >16 µg/mL
[3]; K. pneumoniae DHA-1, n=1
  MICs range: >16 µg/mL
[3]; K. pneumoniae DHA-2, n=1
  MICs range: >16 µg/mL
[3]; K. pneumoniae GES-1, n=1
  MICs range: 0.5 µg/mL
[3]; K. pneumoniae SHV-2a, n=2
  MICs range: 1 µg/mL
[3]; K. pneumoniae SHV-5, n=2
  MICs range: >16 µg/mL
[3]; K. pneumoniae SHV-12, n=1
  MICs range: 1 µg/mL
[3]; K. pneumoniae SHV-12, n=2
  MICs range: 2 to 8 µg/mL
[3]; K. pneumoniae SHV-28, n=3
  MICs range: >16 µg/mL
[3]; K. pneumoniae TEM-52, n=2
  MICs range: >16 µg/mL
[3]; K. pneumoniae Wild-type penicillinase, n=2
  MICs range: 0.02 to 0.03 µg/mL
[4]; P. mirabilis 09.128, TEM-52
  ESBL NDP Test from: Colonies: +
[4]; P. mirabilis 09.177, TEM-21
  ESBL NDP Test from: Colonies: −
[4]; P. mirabilis ACC-1, n=1
  Test (color change): −
[4]; P. mirabilis BIK, ACC-1
  ESBL NDP Test from: Colonies: −
[4]; P. mirabilis CTX-M-14, n=1
  Test (color change): +
[4]; P. mirabilis CTX-M-15, n=1
  Test (color change): +
[4]; P. mirabilis PER-1, n=1
  Test (color change): +
[4]; P. mirabilis TEM-21, n=1
  Test (color change): +
[4]; P. mirabilis TEM-52, n=1
  Test (color change): +
[5]; S. enterica CTX-M-1, n=1
  Test (color change): +
[5]; S. enterica Wild-type, no resistance, n=1
  Test (color change): −
[6]; E. cloacae 09.57, SHV-12
  ESBL NDP Test from: Colonies: +
[6]; E. cloacae 10.75, CTX-M-15
  ESBL NDP Test from: Colonies: +
[6]; E. cloacae 10.87, CTX-M-15
  ESBL NDP Test from: Colonies: +
[6]; E. cloacae BG 1106 7725, Wild-type
  ESBL NDP Test from: Colonies: −
[6]; E. cloacae BG 1106 7746, Wild-type
  ESBL NDP Test from: Colonies: −
[6]; E. cloacae BG 1107 4118, Wild-type
  ESBL NDP Test from: Colonies: −
[6]; E. cloacae CTX-M-14, n=1
  Test (color change): +
[6]; E. cloacae CTX-M-15, n=17
  Test (color change): +
[6]; E. cloacae GES-5, n=1
  Test (color change): +
[6]; E. cloacae PER-1, n=1
  Test (color change): +
[6]; E. cloacae SHV-5, n=1
  Test (color change): +
[6]; E. cloacae SHV-12, n=6
  Test (color change): +
[6]; E. cloacae TEM-3, n=2
  Test (color change): +
[6]; E. cloacae VEB-1, n=1
  Test (color change): +
[6]; E. cloacae Wild-type, chromosome-encoded cephalosporinase, n=5
  Test (color change): −
[6]; E. cloacae, overexpressed chromosome-encoded cephalosporinase, n=2
  Test (color change): −
[6]; E. cloacae, overexpressed chromosome-encoded cephalosporinase, n=3
  Test (color change): +
[7]
  MIC: > 8 µg/mL
[8]
  MICs range: 0.03 µg/mL
[9]; P. mirabilis ACC-1, n=1
  MICs range: >16 µg/mL
[9]; P. mirabilis CTX-M-14, n=1
  MICs range: >16 µg/mL
[9]; P. mirabilis CTX-M-15, n=1
  MICs range: >16 µg/mL
[9]; P. mirabilis PER-1, n=1
  MICs range: >16 µg/mL
[9]; P. mirabilis TEM-21, n=1
  MICs range: 0.25 µg/mL
[9]; P. mirabilis TEM-52, n=1
  MICs range: >16 µg/mL
